Results published in patent publication US20250215012A1, “IKZF2 DEGRADERS AND USES THEREOF” (REGENTS OF THE UNIVERSITY OF MICHIGAN, priority 2022, published 2025).

Experiments:
IKZF2 = IKZF2 (Homo sapiens (Human), UniProt Q96SW2+Q9UKS7); test: IKZF2 HiBit Assay (HEK293T Flp-in-HiBiT cells); type: cell-based; settings: HEK293T Flp-in-HiBiT cells, 6 hrs; for DC50: read-out: IKZF2 HiBit degradation DC50; for Dmax: HEK-293T, read-out: IKZF2 HiBit degradation Dmax
Protocol: The HiBiT protein tagging system was applied to modified HEK293T Flp-in-HiBiT cells (polyclone) via a CRISPR/Cas9—mediated insertion of the HiBiT peptide tag (Promega™) to the N-terminus of the IKZF2 gene locus (Neon™ transfection system). Test and reference compounds are diluted from 1 mM at 3 folds for 11 doses. 25 nL of diluted compound is transferred to assay plates (Corning3570) using ECHO550, the final DMSO concentration @0.1%. The cells are seeded in 3000/[…]/well to compound plates. It is then incubated for 6 hrs in TC incubator. The amount of Nano-Glo® HiBiT lytic reagent needed to perform the desired experiments is calculated. The Nano-Glo® HiBiT lytic reagent is brought to room temperature. The LgBiT protein is diluted to 1:100 and the Nano-Glo® HiBiT lytic substrate is diluted to 1:50 into an appropriate volume of room temperature Nano-Glo® HiBiT lytic buffer. […] of the detection reagent (or without LgBiT) is dispensed to corresponding well according to the layout. The plate is then shaked for 10 mins at room temperature. After briefly centrifuge, the plate is read on Envision. At the indicated timepoints, the Nano-Glo® HiBiT lytic detection system (Promega™) was utilized for detecting bioluminescence of the HiBiT tag in treated cells: abundance of the tag is proportionate to the level of luminescence. Following normalization to DMSO, dose-response curves were plotted (GraphPad Prism) to determine the concentration points at which 50% of HiBiT-Helios degradation was achieved by each compound. The extent of degradation (range of luminescence) from the highest to lowest concentration points was calculated to determine the Dmax.

IKZF1 = IKZF1 (Homo sapiens (Human), UniProt Q13422+Q96SW2); test: IKZF1 HiBit Assay (HEK293T Flp-in-HiBiT-IKZF1 stable cell line); type: cell-based; settings: HEK293T Flp-in-HiBiT-IKZF1 cells, 6 hrs; for DC50: read-out: IKZF1 HiBit degradation DC50; for Dmax: HEK-293T, read-out: IKZF1 HiBit degradation Dmax
Protocol: The HiBiT protein tagging system was applied to modified Cells: modified HEK293T Flp-in-HiBiT-IKZF1 stable cell line (polyclone) via a CRISPR/Cas9—mediated insertion of the HiBiT peptide tag (Promega™) to the N-terminus of the IKZF2 gene locus (Neon™ transfection system).
Test compound from 10 mM and reference compound (CC-92480 from 50 mM and I-57 from 10 mM) are diluted at 3 folds for 11 doses. 25 nL of diluted compound is transferred to assay plates (Corning3571) using ECHO550, the final DMSO concentration @0.1%. The cells are seeded in 3000/[…]/well to compound plates. The plates are incubated for 6 hrs in TC incubator. The amount of Nano-Glo® HiBiT lytic reagent needed to perform the desired experiments is calculated. The Nano-Glo® HiBiT lytic reagent is brought to room temperature. The LgBiT protein is diluted to 1:100 and the Nano-Glo® HiBiT lytic substrate is brought to 1:50 into an appropriate volume of room temperature Nano-Glo® HiBiT lytic buffer. […] of the detection reagent (or without LgBiT) is dispensed to corresponding well according to the layout. The plate is shaked for 10 mins at room temperature. After briefly centrifuging, the plate is read on Envision. At the indicated timepoints, the Nano-Glo® HiBiT lytic detection system (Promega™) was utilized for detecting bioluminescence of the HiBiT tag in treated cells: abundance of the tag is proportionate to the level of luminescence. Following normalization to DMSO, dose-response curves were plotted (GraphPad Prism) to determine the concentration points at which 50% of HiBiT-Ikaros degradation was achieved by each compound. The extent of degradation (range of luminescence) from the highest to lowest concentration points was calculated to determine the Dm.

[1] = molecular target: His tagged CRBN+DDB−DLS7+CXU4 (Homo sapiens (Human), UniProt Q96SW2); test: IC50 Measurements for Binding to CRBN/DDBI (HTRF); settings: Cy5-labeled Thalidomide probe, one hour incubation
Sequence of His tagged CRBN+DDB−DLS7+CXU4 (Q96SW2 whole entry): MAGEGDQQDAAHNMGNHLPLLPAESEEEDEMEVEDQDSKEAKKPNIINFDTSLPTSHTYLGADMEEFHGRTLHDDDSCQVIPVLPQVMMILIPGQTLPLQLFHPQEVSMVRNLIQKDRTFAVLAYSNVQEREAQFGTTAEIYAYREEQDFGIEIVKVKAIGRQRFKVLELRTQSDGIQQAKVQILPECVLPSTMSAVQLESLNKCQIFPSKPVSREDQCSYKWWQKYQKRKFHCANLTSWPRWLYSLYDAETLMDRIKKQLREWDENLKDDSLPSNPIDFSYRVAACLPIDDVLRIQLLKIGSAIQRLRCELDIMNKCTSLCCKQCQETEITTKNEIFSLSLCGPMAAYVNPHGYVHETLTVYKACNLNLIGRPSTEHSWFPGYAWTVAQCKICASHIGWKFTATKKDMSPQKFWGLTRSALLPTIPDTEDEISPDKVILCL
Sequence of His tagged CRBN+DDB−DLS7+CXU4 (Q16531 whole entry partner): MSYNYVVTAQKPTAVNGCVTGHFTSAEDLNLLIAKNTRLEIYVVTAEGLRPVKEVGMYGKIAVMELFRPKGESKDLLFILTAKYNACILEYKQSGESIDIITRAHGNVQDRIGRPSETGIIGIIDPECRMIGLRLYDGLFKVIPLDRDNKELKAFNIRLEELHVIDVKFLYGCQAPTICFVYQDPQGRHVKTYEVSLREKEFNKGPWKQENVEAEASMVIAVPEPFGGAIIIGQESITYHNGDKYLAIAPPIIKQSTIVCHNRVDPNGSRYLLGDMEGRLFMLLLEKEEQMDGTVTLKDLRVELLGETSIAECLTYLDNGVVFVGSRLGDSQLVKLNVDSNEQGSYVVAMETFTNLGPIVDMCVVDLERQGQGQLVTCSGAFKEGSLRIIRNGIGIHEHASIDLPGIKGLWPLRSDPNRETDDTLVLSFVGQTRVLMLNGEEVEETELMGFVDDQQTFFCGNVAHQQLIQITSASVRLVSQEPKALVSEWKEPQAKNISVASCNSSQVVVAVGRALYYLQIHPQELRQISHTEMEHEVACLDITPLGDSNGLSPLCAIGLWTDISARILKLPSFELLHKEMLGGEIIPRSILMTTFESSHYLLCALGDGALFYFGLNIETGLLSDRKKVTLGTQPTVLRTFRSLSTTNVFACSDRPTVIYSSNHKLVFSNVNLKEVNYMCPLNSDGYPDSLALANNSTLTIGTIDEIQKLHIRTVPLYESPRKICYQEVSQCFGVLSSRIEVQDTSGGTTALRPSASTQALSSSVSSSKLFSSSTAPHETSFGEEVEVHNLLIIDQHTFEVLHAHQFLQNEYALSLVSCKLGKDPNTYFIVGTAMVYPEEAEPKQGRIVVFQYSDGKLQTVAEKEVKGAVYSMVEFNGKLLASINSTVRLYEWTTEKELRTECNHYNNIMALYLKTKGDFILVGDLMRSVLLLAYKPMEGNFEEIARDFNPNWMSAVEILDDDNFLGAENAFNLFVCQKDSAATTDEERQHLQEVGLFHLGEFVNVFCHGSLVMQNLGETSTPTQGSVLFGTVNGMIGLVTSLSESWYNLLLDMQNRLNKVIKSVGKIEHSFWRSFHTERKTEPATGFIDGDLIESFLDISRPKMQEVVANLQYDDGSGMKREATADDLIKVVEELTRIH

Sequence of IKZF1 (Q13422 whole entry): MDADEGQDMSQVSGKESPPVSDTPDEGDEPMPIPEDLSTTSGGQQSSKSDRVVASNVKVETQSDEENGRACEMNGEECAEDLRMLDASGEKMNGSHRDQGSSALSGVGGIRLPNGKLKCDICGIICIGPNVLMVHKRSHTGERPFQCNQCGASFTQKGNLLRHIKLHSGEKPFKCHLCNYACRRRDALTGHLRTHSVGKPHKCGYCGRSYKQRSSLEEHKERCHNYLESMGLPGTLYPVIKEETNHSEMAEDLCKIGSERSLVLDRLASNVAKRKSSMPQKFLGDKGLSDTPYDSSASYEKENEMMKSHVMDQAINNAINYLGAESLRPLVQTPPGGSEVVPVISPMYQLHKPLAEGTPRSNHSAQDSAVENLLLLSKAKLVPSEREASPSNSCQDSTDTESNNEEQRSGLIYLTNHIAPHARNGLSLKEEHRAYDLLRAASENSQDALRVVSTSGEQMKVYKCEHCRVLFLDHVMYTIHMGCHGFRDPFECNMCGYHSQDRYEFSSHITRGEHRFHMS
Sequence of IKZF1 (Q96SW2 whole entry): as the sequence (Q96SW2 whole entry) above
Sequence of IKZF1 (Q16531 whole entry partner): as the sequence (Q16531 whole entry partner) above
Sequence of IKZF2 (Q9UKS7 whole entry): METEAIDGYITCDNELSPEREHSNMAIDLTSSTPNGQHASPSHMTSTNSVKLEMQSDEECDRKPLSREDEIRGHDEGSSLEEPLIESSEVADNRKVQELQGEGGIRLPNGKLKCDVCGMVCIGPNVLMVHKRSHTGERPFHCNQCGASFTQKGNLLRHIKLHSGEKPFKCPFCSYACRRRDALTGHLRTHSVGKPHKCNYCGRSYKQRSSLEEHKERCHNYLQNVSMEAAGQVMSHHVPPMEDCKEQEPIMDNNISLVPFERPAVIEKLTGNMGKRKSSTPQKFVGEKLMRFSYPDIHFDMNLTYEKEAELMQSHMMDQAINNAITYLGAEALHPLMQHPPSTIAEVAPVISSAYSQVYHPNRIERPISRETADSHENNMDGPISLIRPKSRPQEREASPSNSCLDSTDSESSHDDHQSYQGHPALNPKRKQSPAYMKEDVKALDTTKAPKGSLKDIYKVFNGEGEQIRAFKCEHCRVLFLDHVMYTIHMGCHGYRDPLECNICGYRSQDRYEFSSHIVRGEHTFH
Sequence of IKZF2 (Q96SW2 whole entry): as the sequence (Q96SW2 whole entry) above
Sequence of IKZF2 (Q16531 whole entry partner): as the sequence (Q16531 whole entry partner) above

O=C1CC[C@H](N2Cc3c(ccc4c3OCC43CCN(Cc4cccc5[nH]ncc45)CC3(F)F)C2=O)C(=O)N1 (stereo partly drawn) [Compound B41, (3S)-3-(1′-((1H-indazol-4-yl)methyl)-3′,3′-difluoro-6-oxo-6,8-dihydro-2H,7H-spiro[furo[2,3-e]isoindole-3,4′-piperidin]-7-yl)piperidine-2,6-dione]
DC50 (IKZF2): 1 to 10 nM | Dmax (IKZF2): 60 to 80% | DC50 (IKZF1): 10 to 100 nM | Dmax (IKZF1): 20 to 40% | IC50 [1]: 100 to 500 nM

[2H]C([2H])(c1cccc(-c2cnn(C(F)F)c2)c1)N1CCC2(CC1)COc1c2ccc2c1CN([C@H]1CCC(=O)NC1=O)C2=O [Compound B10, (S)-3-(1′-((3-(1-(difluoromethyl)-1H-pyrazol-4-yl)phenyl)methyl-d2)-6-oxo-6,8-dihydro-2H,7H-spiro[furo[2,3-e]isoindole-3,4′-piperidin]-7-yl) piperidine-2,6-dione]
DC50 (IKZF2): 1 to 10 nM | Dmax (IKZF2): 60 to 80% | DC50 (IKZF1): > 1000 nM | Dmax (IKZF1): < 20% | IC50 [1]: 100 to 500 nM

(3S)-3-(3′,3′-difluoro-1′-((1-methyl-1H-indazol-6-yl)methyl)-3-oxo-1,3,7,8-tetrahydro-2H-spiro[cyclopenta[e]isoindole-6,4′-piperidin]-2-yl)piperidine-2,6-dione [Compound B34]
IKZF2 HiBit degradation Dmax (IKZF2): B (B: 60-80%) | DC50 (IKZF2): 1 to 10 nM | IKZF1 HiBit degradation Dmax (IKZF1): C (C: <20%) | DC50 (IKZF1): > 1000 nM | IC50 [1]: 100 to 500 nM

Cn1cc(-c2cccc(CN3CC[C@@]4(COc5c4ccc4c5CN([C@H]5CCC(=O)NC5=O)C4=O)C(F)(F)C3)c2)cn1 [Compound B52, (S)-3-((R)-3′,3′-difluoro-1′-(3-(1-methyl-1H-pyrazol-4-yl)benzyl)-6-oxo-6,8-dihydro-2H,7H-spiro[furo[2,3-e]isoindole-3,4′-piperidin]-7-yl)piperidine-2,6-dione]
DC50 (IKZF2): 1 to 10 nM | Dmax (IKZF2): 40 to 60% | DC50 (IKZF1): > 1000 nM | Dmax (IKZF1): < 20% | IC50 [1]: 100 to 500 nM

Cn1cc(-c2cccc(CN3CCC4(COc5c4ccc4c5CN([C@H]5CCC(=O)NC5=O)C4=O)C(F)(F)C3)c2)cn1 (stereo partly drawn) [Compound B39, (3S)-3-(3′,3′-difluoro-1′-(3-(1-methyl-1H-pyrazol-4-yl)benzyl)-6-oxo-6,8-dihydro-2H,7H-spiro[furo[2,3-e]isoindole-3,4′-piperidin]-7-yl) piperidine-2,6-dione]
DC50 (IKZF2): < 1 nM | Dmax (IKZF2): 60 to 80% | DC50 (IKZF1): > 1000 nM | Dmax (IKZF1): < 20% | IC50 [1]: 100 to 500 nM

O=C1CC[C@H](N2Cc3c(ccc4c3OCC43CCN(Cc4ccc5c(c4)C(=O)NC5)CC3(F)F)C2=O)C(=O)N1 (stereo partly drawn) [Compound B31, (3S)-3-(3′,3′-difluoro-6-oxo-1′-((3-oxoisoindolin-5-yl)methyl)-6,8-dihydro-2H,7H-spiro[furo[2,3-e]isoindole-3,4′-piperidin]-7-yl)piperidine-2,6-dione]
DC50 (IKZF2): 1 to 10 nM | Dmax (IKZF2): 60 to 80% | DC50 (IKZF1): > 1000 nM | Dmax (IKZF1): < 20% | IC50 [1]: 100 to 500 nM

O=C1CC[C@H](N2Cc3c(ccc4c3OC[C@@]43CCN(Cc4cccc(-c5cnn(C6COC6)c5)c4)CC3(F)F)C2=O)C(=O)N1 [Compound B54, (S)-3-((R)-3′,3′-difluoro-1′-(3-(1-(oxetan-3-yl)-1H-pyrazol-4-yl)benzyl)-6-oxo-6,8-dihydro-2H,7H-spiro[furo[2,3-e]isoindole-3,4′-piperidin]-7-yl)piperidine-2,6-dione]
DC50 (IKZF2): 1 to 10 nM | Dmax (IKZF2): 60 to 80% | DC50 (IKZF1): > 1000 nM | Dmax (IKZF1): 20 to 40%

N#Cc1ccc(-n2cc(CN3CCC4(CC3)CNc3c4ccc4c3CN([C@H]3CCC(=O)NC3=O)C4=O)cn2)cc1 [Compound B58, (S)-4-(4-((7′-(2,6-dioxopiperidin-3-yl)-6′-oxo-1′,6′,7′,8′-tetrahydro-2′H-spiro[piperidine-4,3′-pyrrolo[3,4-g]indol]-1-yl)methyl)-1H-pyrazol-1-yl)benzonitrile]
DC50 (IKZF2): 1 to 10 nM | Dmax (IKZF2): 40 to 60% | DC50 (IKZF1): > 1000 nM | Dmax (IKZF1): < 20%

O=C1CC[C@@H](N2Cc3c(ccc4c3OCC43CCN(Cc4cccc(-c5cnn(C6COC6)c5)c4)CC3)C2=O)C(=O)N1 [Compound B15, (R)-3-(1′-(3-(1-(oxetan-3-yl)-1H-pyrazol-4-yl)benzyl)-6-oxo-6,8-dihydro-2H,7H-spiro[furo[2,3-e]isoindole-3,4′-piperidin]-7-yl)piperidine-2,6-dione]
DC50 (IKZF2): 1 to 10 nM | Dmax (IKZF2): > 80% | DC50 (IKZF1): > 1000 nM | Dmax (IKZF1): < 20%

O=C1CCC(N2Cc3c(ccc4c3OCC43CCN(Cc4cccc5cn[nH]c45)CC3O)C2=O)C(=O)N1 (stereo not drawn) [Compound B24, 3-(1′-((1H-indazol-7-yl)methyl)-3′-hydroxy-6-oxo-6,8-dihydro-2H,7H-spiro[furo[2,3-e]isoindole-3,4′-piperidin]-7-yl)piperidine-2,6-dione]
DC50 (IKZF2): 10 to 100 nM | Dmax (IKZF2): 60 to 80% | DC50 (IKZF1): > 1000 nM | Dmax (IKZF1): < 20%

O=C1CC[C@H](N2Cc3c(ccc4c3NCC43CCN(Cc4ccccc4)CC3)C2=O)C(=O)N1 [Compound B56, (S)-3-(1-benzyl-6′-oxo-1′,2′,6′,8′-tetrahydro-7′H-spiro[piperidine-4,3′-pyrrolo[3,4-g]indol]-7′-yl)piperidine-2,6-dione]
DC50 (IKZF2): 10 to 100 nM | Dmax (IKZF2): 40 to 60% | DC50 (IKZF1): > 1000 nM | Dmax (IKZF1): < 20%

O=C1CC[C@H](N2Cc3c(ccc4c3OCC43CCN(Cc4cnn(CC5CCS(=O)(=O)CC5)c4)CC3(F)F)C2=O)C(=O)N1 (stereo partly drawn) [Compound B47, (3S)-3-(1′-((1-((1,1-dioxidotetrahydro-2H-thiopyran-4-yl)methyl)-1H-pyrazol-4-yl)methyl)-3′,3′-difluoro-6-oxo-6,8-dihydro-2H,7H-spiro[furo[2,3-e]isoindole-3,4′-piperidin]-7-yl)piperidine-2,6-dione]
DC50 (IKZF2): 10 to 100 nM | Dmax (IKZF2): 60 to 80% | DC50 (IKZF1): > 1000 nM | Dmax (IKZF1): < 20%

O=C1CCC(N2Cc3c(ccc4c3OCC43CCN(Cc4ccccc4)CC3(F)F)C2=O)C(=O)N1 (stereo not drawn) [Compound B25, 3-(1′-benzyl-3′,3′-difluoro-6-oxo-6,8-dihydro-2H,7H-spiro[furo[2,3-e]isoindole-3,4′-piperidin]-7-yl)piperidine-2,6-dione]
DC50 (IKZF2): 1 to 10 nM | Dmax (IKZF2): 60 to 80% | DC50 (IKZF1): 1 to 10 nM | Dmax (IKZF1): 20 to 40%

Cn1cc(-c2cccc(CN3CCC4(CC3)CNc3c4ccc4c3CN([C@H]3CCC(=O)NC3=O)C4=O)c2)cn1 [Compound B57, (S)-3-(1-(3-(1-methyl-1H-pyrazol-4-yl)benzyl)-6′-oxo-1′,2′,6′,8′-tetrahydro-7′H-spiro[piperidine-4,3′-pyrrolo[3,4-g]indol]-7′-yl)piperidine-2,6-dione]
DC50 (IKZF2): 10 to 100 nM | Dmax (IKZF2): 60 to 80% | DC50 (IKZF1): > 1000 nM | Dmax (IKZF1): < 20%

O=C1CC[C@H](N2Cc3c(ccc4c3OCC43CCN(Cc4cnn(CC5CCOCC5)c4)CC3)C2=O)C(=O)N1 [Compound B6, (S)-3-(6-oxo-1′-((1-((tetrahydro-2H-pyran-4-yl)methyl)-1H-pyrazol-4-yl)methyl)-6,8-dihydro-2H,7H-spiro[furo[2,3-e]isoindole-3,4′-piperidin]-7-yl)piperidine-2,6-dione]
DC50 (IKZF2): 1 to 10 nM | Dmax (IKZF2): 60 to 80% | DC50 (IKZF1): > 1000 nM | Dmax (IKZF1): < 20%
